IC50 data for 16 compounds are collected here from patent US20230022157A1 (Achillion Pharmaceuticals, Inc., priority 2018, published 2023).

Like-named read-outs stand apart in the source and are kept apart here.

This experiment has as its target T1, Human Factor D (Homo sapiens, UniProt P00746).
T1 construct: purified from human serum; purchased Complement Technology, Inc; host or cells: human serum (natural protein, not recombinant)
Put plainly: Human Factor D Assay. The format is biochemical. To be noted: Human Factor D 80 nM, substrate Z-L-Lys-SBzl, read-out: IC50 (Stars). In a few lines:
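Serum-purified human factor D (80 nM final) preincubated 5 min at room temperature with test compound in 50 mM Tris, 1M NaCl, pH 7.5. Z-L-Lys-SBzl substrate and DTNB then added, each at 100 μM final. IC50 from nonlinear regression of reaction rate against compound concentration.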

T1 sequence (P00746 26-253): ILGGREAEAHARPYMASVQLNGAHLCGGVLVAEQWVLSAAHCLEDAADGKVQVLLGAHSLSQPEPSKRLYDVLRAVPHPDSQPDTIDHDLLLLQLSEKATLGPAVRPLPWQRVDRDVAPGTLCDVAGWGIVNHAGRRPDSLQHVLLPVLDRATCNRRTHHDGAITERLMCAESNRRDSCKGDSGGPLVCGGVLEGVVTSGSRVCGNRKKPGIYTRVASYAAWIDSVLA

Regarding `COc1ncc(-c2cc(C)c3c(c2)c(C(C)=O)nn3CC(=O)N2[C@H](C(=O)Nc3nc(Br)ccc3C)C[C@@]3(C)C[C@@H]23)cn1` [Compound 52, (1R,3S,5R)-2-(2-(3-acetyl-5-(2-methoxypyrimidin-5-yl)-7-methyl-1H-indazol-1-yl)acetyl)-N-(6-bromo-3-methylpyridin-2-yl)-5-methyl-2-azabicyclo[3.1.0]hexane-3-carboxamide], the IC50 (Table 2) was under 1000 nM.
Still for that read-out and setting: for `CC(=O)c1nn(CC(=O)N2[C@H](C(=O)NC(C)Cc3cccs3)C[C@@]3(C)C[C@@H]23)c2c(C)cc(-c3cnc(C)nc3)cc12` (stereo partly drawn) [Compound 182, (1R,3S,5R)-2-{2-[3-acetyl-7-methyl-5-(2-methylpyrimidin-5-yl)indazol-1-yl]acetyl}-5-methyl-N-[1-(thiophen-2-yl)propan-2-yl]-2-azabicyclo[3.1.0]hexane-3-carboxamide] the value was under 1000 nM; for `Cc1ncc(-c2ccc3c(c2)c(C2OCCO2)nn3CC(=O)N2[C@H](C(=O)Nc3nc(Br)ccc3C)C[C@@]3(C)C[C@@H]23)cn1` [Compound 143, (1R,3S,5R)-2-(2-(3-(1,3-dioxolan-2-yl)-5-(2-methylpyrimidin-5-yl)-1H-indazol-1-yl)acetyl)-N-(6-bromo-3-methylpyridin-2-yl)-5-methyl-2-azabicyclo[3.1.0]hexane-3-carboxamide], under 1000 nM.
Regarding `CC[C@@H](C)NC(=O)[C@@H]1C[C@@]2(C)C[C@H]2N1C(=O)Cn1nc(C(C)=O)c2cc(-c3cnc(C)nc3)ccc21` [Compound 11, (1R,3S,5R)-2-(2-(3-Acetyl-5-(2-methylpyrimidin-5-yl)-1H-indazol-1-yl)acetyl)-N—((R)-sec-butyl)-5-methyl-2-azabicyclo[3.1.0]hexane-3-carboxamide], the IC50 (assay of Example 3) was under 1000 nM.
Consider `CC(=O)c1nn(CC(=O)N2[C@H](C(=O)Nc3nc(Br)ccc3Cl)C[C@@]3(C)C[C@@H]23)c2c(C)cc(-c3cnc(CO)nc3)cc12` [Compound 80, (1R,3S,5R)-2-(2-(3-acetyl-5-(2-(hydroxymethyl)pyrimidin-5-yl)-7-methyl-1H-indazol-1-yl)acetyl)-N-(6-bromo-3-chloropyridin-2-yl)-5-methyl-2-azabicyclo[3.1.0]hexane-3-carboxamide], for which, under “Table 2”, the IC50 was under 1000 nM.
On to `CC(=O)c1nn(CC(=O)N2[C@H]3CC[C@H](C3)[C@H]2C(=O)Nc2nc(C(F)(F)F)ccc2C)c2c(C)cc(-c3cncc(C4(C(=O)O)CC4)c3)cc12` [Compound 128, 1-(5-(3-Acetyl-7-methyl-1-(2-((1S,3S,4R)-3-((3-methyl-6-(trifluoromethyl)pyridin-2-yl)carbamoyl)-2-azabicyclo[2.2.1]heptan-2-yl)-2-oxoethyl)-1H-indazol-5-yl)pyridin-3-yl)cyclopropane-1-carboxylic acid], for which, under “Table 2”, the IC50 is under 1000 nM.
The same measure, in the same setting: as for `CC(=O)c1nn(CC(=O)N2[C@H](C(=O)Nc3nc(C(F)(F)F)ccc3C)C[C@@]3(C)C[C@@H]23)c2c(C)cc(-c3cnc(C)nc3)cc12` [Compound 236, (1R,3S,5R)-2-(2-(3-acetyl-7-methyl-5-(2-methylpyrimidin-5-yl)-1H-indazol-1-yl)acetyl)-5-methyl-N-(3-methyl-6-(trifluoromethyl)pyridin-2-yl)-2-azabicyclo[3.1.0]hexane-3-carboxamide], the figure is under 1000 nM; as for `CC(=O)c1cn(CC(=O)N2C[C@H]3C[C@H]3[C@H]2C(=O)Nc2nc(Br)ccc2C)c2c(C)cc(-c3cnc(CO)nc3)cc12` [Compound 79, (1R,2S,5S)-3-(2-(3-acetyl-5-(2-(hydroxymethyl)pyrimidin-5-yl)-7-methyl-11H-indol-1-yl)acetyl)-N-(6-bromo-3-methylpyridin-2-yl)-3-azabicyclo[3.1.0]hexane-2-carboxamide], under 1000 nM; as for `CC(=O)c1nn(CC(=O)N2[C@H](C(=O)Nc3nc(Br)c(F)cc3C)C[C@@]3(C)C[C@@H]23)c2c(C)cc(-c3cnc(CO)nc3)cc12` [Compound 49, (1R,3S,5R)-2-(2-(3-acetyl-5-(2-(hydroxymethyl)pyrimidin-5-yl)-7-methyl-1H-indazol-1-yl)acetyl)-N-(6-bromo-5-fluoro-3-methylpyridin-2-yl)-5-methyl-2-azabicyclo[3.1.0]hexane-3-carboxamide], under 1000 nM.
Same read-out and setting: as for `CC(=O)c1nn(CC(=O)N2[C@H](C(=O)Nc3nc(Br)ccc3C)C[C@@]3(C)C[C@@H]23)c2ccc(-c3cnc(C(C)O)nc3)cc12` (stereo partly drawn) [Compound 126, (1R,3S,5R)-2-(2-(3-acetyl-5-(2-(1-hydroxyethyl)pyrimidin-5-yl)-1H-indazol-1-yl)acetyl)-N-(6-bromo-3-methylpyridin-2-yl)-5-methyl-2-azabicyclo[3.1.0]hexane-3-carboxamide], the figure is under 1000 nM.
Regarding `CC(=O)c1nn(CC(=O)N2C[C@H](F)C[C@H]2C(=O)Nc2cccc(Br)n2)c2ccc(-c3ccc(C)cc3)cc12` [Compound 29, (2S,4R)-1-(2-(3-Acetyl-5-(p-tolyl)-1H-indazol-1-yl)acetyl)-N-(6-bromopyridin-2-yl)-4-fluoropyrrolidine-2-carboxamide], where the note is “assay of Example 3”, the IC50 is under 1000 nM.
For the compound `CC(=O)c1nn(CC(=O)N2C[C@H]3C[C@H]3[C@H]2C(=O)Nc2nc(Br)ccc2C)c2ccc(-c3cncc(S(N)(=O)=O)c3)cc12` [Compound 69, (1R,2S,5S)-3-(2-(3-Acetyl-5-(5-sulfamoylpyridin-3-yl)-1H-indazol-1-yl)acetyl)-N-(6-bromo-3-methylpyridin-2-yl)-3-azabicyclo[3.1.0]hexane-2-carboxamide], the IC50 (Table 2) is under 1000 nM.
Still for that read-out and setting: as for `CC(=O)c1nn(CC(=O)N2[C@H](C(=O)Nc3nc(Br)ccc3C)C[C@@]3(C)C[C@@H]23)c2c(C)cc(-c3cnc(C(C)O)cn3)cc12` (stereo partly drawn) [Compound 176, (1R,3S,5R)-2-(2-(3-acetyl-5-(5-(1-hydroxyethyl)pyrazin-2-yl)-7-methyl-1H-indazol-1-yl)acetyl)-N-(6-bromo-3-methylpyridin-2-yl)-5-methyl-2-azabicyclo[3.1.0]hexane-3-carboxamide], the figure is under 1000 nM; as for `CC(=O)c1cn(CC(=O)N2[C@H](C(=O)Nc3nc(C(F)(F)F)ccc3C)C[C@@]3(C)C[C@@H]23)c2c(C)cc(-c3cnc4cc(C)nn4c3)cc12` [Compound 199, (1R,3S,5R)-2-(2-(3-acetyl-7-methyl-5-(2-methylpyrazolo[1,5-a]pyrimidin-6-yl)-1H-indol-1-yl)acetyl)-5-methyl-N-(3-methyl-6-(trifluoromethyl)pyridin-2-yl)-2-azabicyclo[3.1.0]hexane-3-carboxamide], under 1000 nM; as for `CC(=O)c1nn(CC(=O)N2[C@H](C(=O)N[C@H](c3ccccc3)C(F)(F)F)C[C@@]3(C)C[C@@H]23)c2c(C)cc(-c3cnc(C)nc3)cc12` [Compound 86, (1R,3S,5R)-2-{2-[3-acetyl-7-methyl-5-(2-methylpyrimidin-5-yl)indazol-1-yl]acetyl}-5-methyl-N-[(1R)-2,2,2-trifluoro-1-phenylethyl]-2-azabicyclo[3.1.0]hexane-3-carboxamide], under 1000 nM.
The same measure, in the same setting: as for `CC(=O)c1nn(CC(=O)N2[C@H](C(=O)N[C@H]3CCCCC3(F)F)C[C@@]3(C)C[C@@H]23)c2c(C)cc(-c3cnc(C)nc3)cc12` [Compound 149, (1R,3S,5R)-2-{2-[3-acetyl-7-methyl-5-(2-methylpyrimidin-5-yl)indazol-1-yl]acetyl}-N-[(1S)-2,2-difluorocyclohexyl]-5-methyl-2-azabicyclo[3.1.0]hexane-3-carboxamide], the figure is under 1000 nM.

As a reminder, the IC50 is the concentration that inhibits the measured activity by half.
